How the values were obtained:
[1] = tested on: gray mold pathogen (Botrytis cinerea); experiment: Gray mold antimicrobial test (growth inhibition rate); assay type: cell-based; parameters: growth inhibition rate, component (II) alone: concentration or dose not given beside the values
Method: (Test Example) Gray Mold Antimicrobial Test (Growth Inhibition Rate)
Conidiospores of a gray mold pathogen (Botrytis cinerea) were added to and dispersed in a yeast extract sucrose medium, and a component (I) and a component (II) dissolved in dimethyl sulfoxide at predetermined concentrations were further added and mixed thereto, and the resulting solution was dispensed onto a 96-well microplate and cultivated in the dark at 20° C. for 3 to 5 days. After the cultivation, the turbidity at a wavelength of 405 nm was measured by a microplate reader and compared with that in the untreated case to determine the growth inhibition rate (%) for the gray mold pathogen. The test was duplicately carried out. The results are shown in Tables 3 to 7 together with expected values calculated as follows.
Expected values were calculated by using Colby's equation: E=M+N−MN/100. Here, E denotes an expected value (%) of a growth inhibition rate, M denotes a growth inhibition rate (%) in using a component (I) alone, and N denotes a growth inhibition rate (%) in using a component (II) alone.
If the actually measured growth inhibition rate (%) of a composition of a component (I) and a component (II) is higher than the expected value, E, the composition of a component (I) and a component (II) is said to have exerted synergistic effect.

[2] = tested on: cucumber powdery mildew pathogen (Sphaerotheca fuliginea); experiment: Cucumber powdery mildew control test; assay type: in vivo; parameters: scale not given here
Description: (Test Example) Cucumber Powdery Mildew Control Test 1) Preparation of Drug Solution for Test […] The other components (II) were each formulated into an aqueous solution or suspension having a predetermined concentration. 2) Test A mixed solution of a component (I) and a component (II) at a predetermined concentration was sprayed onto cucumber seedlings (variety: “Shimo-shirazu, creeping type”, cotyledon stage). After natural drying at room temperature, conidiospores of a cucumber powdery mildew pathogen (Sphaerotheca fuliginea) were inoculated by blushing off, and the seedlings were kept in a thermostatic room at 20° C. using a 12 hour light/dark cycle for 7 to 10 days. The states of lesion development on leaves were examined by comparing with that for the untreated case, and the control values were determined. The test was duplicately carried out. The results are shown in Tables 8 to 12 together with expected values calculated as follows. Expected values were calculated by using Colby's equation: […] Here, E denotes an expected value of a control value, M denotes a control value in using a component (I) alone, and N denotes a control value in using a component (II) alone. If the actually measured control value of a composition of a component (I) and a component (II) is higher than the expected value, E, the composition of a component (I) and a component (II) is said to have exerted synergistic effect.

[3] = Table 3, ppm: Ipflufenoquin 10, Cyflufenamid 10, Thiophamate-methyl 0.4, Iminoctadine acetate 0.08, Iminoctadine albesilate 0.08, Triflumizole 0.0032, Picarbutrazox 0.08, Prothioconazole 0.0032, Mefentrifluconazole 0.00064, Cymoxanil 10, Fludioxonil 0.016, Metyltetraprole 0.4, Florylpicoxamid 0.08, Fluxapyroxad 0.08, Fluopyram 0.4, Potassium phosphite 10, Fipronil 2, Chlorantraniliprole 0.016, Aba
[4] = Table 4, ppm: Ipflufenoquin 10, Cyflufenamid 2, Thiophamate-methyl 0.4, Iminoctadine acetate 0.08, Iminoctadine albesilate 0.4, Picarbutrazox 10, Prothioconazole 0.0032, Mefentrifluconazole 0.0006, Cymoxanil 10, Fludioxonil 0.016, Metyltetraprole 10, Fluxapyroxad 0.016, Fluopyram 0.4, Potassium phosphite 10, Fipronil 2, Chlorantraniliprole 0.016, Abamectin 0.016, Sulfoxaflor 10, Tebufenozide 0.016
[5] = Table 5, ppm: Ipflufenoquin 10, Cyflufenamid 10, Thiophamate-methyl 0.4, Iminoctadine albesilate 0.4, Picarbutrazox 0.0032, Mefentrifluconazole 0.0006, Cymoxanil 10, Captan 0.0032, Fludioxonil 0.016, Metyltetraprole 10, Florylpicoxamid 0.0001, Fluxapyroxad 0.016, Fluopyram 0.0032, Potassium phosphite 0.08, Fipronil 2, Chlorantraniliprole 0.016, Abamectin 0.4, Sulfoxaflor 0.4, Tebufenozide 10
[6] = Table 6, ppm: Ipflufenoquin 10, Cyflufenamid 0.08, Thiophamate-methyl 2, Triflumizole 0.08, Picarbutrazox 0.0016, Prothioconazole 0.0006, Mefentrifluconazole 0.08, Cymoxanil 0.08, Captan 0.08, Fludioxonil 0.016, Metyltetraprole 10, Florylpicoxamid 0.0006, Fluxapyroxad 0.0032, Fluopyram 0.016, Potassium phosphite 0.016, Fipronil 10, Chlorantraniliprole 0.08, Abamectin 2, Sulfoxaflor 0.08, Tebufenoz
[7] = Table 7, ppm: Ipflufenoquin 0.08, Cyflufenamid 0.08, Thiophamate-methyl 2, Iminoctadine acetate 0.0001, Iminoctadine albesilate 0.4, Triflumizole 0.4, Prothioconazole 0.0032, Mefentrifluconazole 0.08, Cymoxanil 0.08, Captan 0.08, Fludioxonil 0.08, Metyltetraprole 0.0032, Florylpicoxamid 0.0006, Fluxapyroxad 0.016, Fluopyram 0.0032, Potassium phosphite 0.016, Fipronil 2, Chlorantraniliprole 0.016
[8] = Table 8, ppm or dilution rate: Thiophanate-methyl 1.6, Triflumizole 25, Cyflufenamid 1.6, Iminoctadine acetate 0.25, Iminoctadine albesilate 1, Picarbutrazox 2000, Ipflufenoquin 1, Bacillus subtilis ×250, Pseudomonas rhodesiae ×2000, Sodium hydrogen carbonate 250, Potassium bicarbonate 250, Orange oil 4000, Linalool 4000, Thymol 100, Neem oil 2000, Prothioconazole 1.6, Mancozeb 63, Mineral oil 500
[9] = Table 9, ppm or dilution rate: Thiophanate-methyl 1.6, Triflumizole 25, Cyflufenamid 1.6, Iminoctadine acetate 0.25, Iminoctadine albesilate 1, Picarbutrazox 2000, Ipflufenoquin 1, Bacillus subtilis ×250, Pseudomonas rhodesiae ×2000, Sodium hydrogen carbonate 250, Potassium bicarbonate 250, Orange oil 1000, Linalool 4000, Thymol 100, Neem oil 2000, Prothioconazole 1.6, Mancozeb 63, Mineral oil 500
[10] = Table 10, ppm or dilution rate: Thiophanate-methyl 1.6, Triflumizole 25, Cyflufenamid 1.6, Iminoctadine acetate 0.25, Iminoctadine albesilate 1, Picarbutrazox 2000, Ipflufenoquin 1, Bacillus subtilis ×1000, Pseudomonas rhodesiae ×2000, Sodium hydrogen carbonate 250, Potassium bicarbonate 250, Orange oil 1000, Linalool 4000, Thymol 100, Neem oil 2000, Prothioconazole 1.6, Mancozeb 63, Mineral oil 5
[11] = Table 11, ppm or dilution rate: Thiophanate-methyl 1.6, Triflumizole 25, Cyflufenamid 1.6, Iminoctadine acetate 1, Iminoctadine albesilate 1, Picarbutrazox 2000, Ipflufenoquin 1, Bacillus subtilis ×1000, Pseudomonas rhodesiae ×2000, Sodium hydrogen carbonate 250, Potassium bicarbonate 250, Orange oil 1000, Linalool 4000, Thymol 100, Neem oil 2000, Prothioconazole 1.6, Mancozeb 63, Mineral oil 500
[12] = Table 12, ppm or dilution rate: Thiophanate-methyl 1.6, Triflumizole 25, Cyflufenamid 1.6, Iminoctadine acetate 0.25, Iminoctadine albesilate 1, Picarbutrazox 2000, Ipflufenoquin 1, Bacillus subtilis ×1000, Pseudomonas rhodesiae ×2000, Sodium hydrogen carbonate 1000, Potassium bicarbonate 250, Orange oil 1000, Linalool 4000, Thymol 400, Neem oil 2000, Prothioconazole 1.6, Mancozeb 63, Mineral oil

| Molecule | growth inhibition rate, component (II) alone [1, 3] [%] | growth inhibition rate, component (II) alone [1, 4] [%] | growth inhibition rate, component (II) alone [1, 5] [%] | growth inhibition rate, component (II) alone [1, 6] [%] | growth inhibition rate, component (II) alone [1, 7] [%] | control value, component (II) alone [2, 8] | control value, component (II) alone [2, 9] | control value, component (II) alone [2, 10] | control value, component (II) alone [2, 11] | control value, component (II) alone [2, 12] |
| --- | --- | --- | --- | --- | --- | --- | --- | --- | --- | --- |
| Cn1cc(C(=O)Nc2ccccc2-c2cc(F)c(F)c(F)c2)c(C(F)F)n1 [Fluxapyroxad] | 8 | 10 | 10 | 10 | 11 | – | – | – | – | – |
| O=C(Cc1ccccc1)N/C(=N\OCC1CC1)c1c(C(F)(F)F)ccc(F)c1F [Cyflufenamid] | – | – | – | – | – | 50 | 50 | 50 | 50 | 50 |
| CCCCCCCCCCCCc1ccc(S(=O)(=O)O)cc1.CCCCCCCCCCCCc1ccc(S(=O)(=O)O)cc1.CCCCCCCCCCCCc1ccc(S(=O)(=O)O)cc1.NC(N)=NCCCCCCCCNCCCCCCCCN=C(N)N [Iminoctadine albesilate] | 6 | 81 | 81 | – | 81 | 50 | 67 | 50 | 67 | 17 |
| OC(Cc1ccccc1Cl)(Cn1nc[nH]c1=S)C1(Cl)CC1 (centres unmarked) [Prothioconazole] | – | – | – | – | – | 50 | 0 | 17 | 0 | 0 |
| COc1ccnc(C(=O)N[C@@H](C)C(=O)O[C@@H](C)C(c2ccc(F)cc2)c2ccc(F)cc2)c1OC(C)=O [Florylpicoxamid] | 13 | – | 0 | 8 | 6 | – | – | – | – | – |
| Cc1ccc(C(C)C)c(O)c1 [Thymol] | – | – | – | – | – | 17 | 17 | 17 | 17 | 50 |
| C=CC(C)(O)CCC=C(C)C (centres unmarked) [Linalool] | – | – | – | – | – | 27 | 27 | 17 | 17 | 27 |
| COC(=O)NC(=S)Nc1ccccc1NC(=S)NC(=O)OC [Thiophanate-methyl] | – | – | – | – | – | 83 | 83 | 0 | 67 | 17 |
| CCCOC/C(=N\c1ccc(Cl)cc1C(F)(F)F)n1ccnc1 [Triflumizole] | – | – | – | – | – | 27 | 27 | 27 | 27 | 27 |
| Cc1cccc(-n2nnn(C)c2=O)c1COc1ccn(-c2ccc(Cl)cc2)n1 [Metyltetraprole] | 0 | 52 | 33 | 33 | 0 | – | – | – | – | – |
| Abamectin | 0 | 0 | 64 | 12 | 0 | – | – | – | – | – |
| Potassium phosphite | 0 | 0 | 0 | 1 | 12 | – | – | – | – | – |
| Mancozeb | – | – | – | – | – | 17 | 17 | 17 | 17 | 17 |
| O=C([O-])O.[Na+] [Sodium hydrogen carbonate] | – | – | – | – | – | 33 | 33 | 33 | 33 | 33 |
| CC(O)(Cn1cncn1)c1ccc(Oc2ccc(Cl)cc2)cc1C(F)(F)F (centres unmarked) [Mefentrifluconazole] | 0 | 0 | 48 | 37 | 34 | – | – | – | – | – |
| O=C([O-])O.[K+] [Potassium bicarbonate] | – | – | – | – | – | 64 | 64 | 17 | 64 | 64 |

Reference: patent publication US20240260575A1, “AGRICULTURAL AND HORTICULTURAL FUNGICIDAL COMPOSITION” (Nippon Soda Co., Ltd., priority 2021, published 2024)
